Assay results from publication PMC5368959, “Uricosuric targets of tranilast” (Pharmacology Research & Perspectives, 2017).
Values joined by “and” are separate entries in the source; they are usually repeats but may differ in a detail not shown here. Equal entries are not always repeated. Where two headings read alike, the source gives them in different places.

Key:
URAT1 [1] = target: T1, URAT1 (Homo sapiens, UniProt Q96S37); test: [14C]-urate uptake by URAT1-expressing Xenopus oocytes; format: cell-based; conditions: for IC50: 40 μmol/L urate
T1 sequence (Q96S37 1-553): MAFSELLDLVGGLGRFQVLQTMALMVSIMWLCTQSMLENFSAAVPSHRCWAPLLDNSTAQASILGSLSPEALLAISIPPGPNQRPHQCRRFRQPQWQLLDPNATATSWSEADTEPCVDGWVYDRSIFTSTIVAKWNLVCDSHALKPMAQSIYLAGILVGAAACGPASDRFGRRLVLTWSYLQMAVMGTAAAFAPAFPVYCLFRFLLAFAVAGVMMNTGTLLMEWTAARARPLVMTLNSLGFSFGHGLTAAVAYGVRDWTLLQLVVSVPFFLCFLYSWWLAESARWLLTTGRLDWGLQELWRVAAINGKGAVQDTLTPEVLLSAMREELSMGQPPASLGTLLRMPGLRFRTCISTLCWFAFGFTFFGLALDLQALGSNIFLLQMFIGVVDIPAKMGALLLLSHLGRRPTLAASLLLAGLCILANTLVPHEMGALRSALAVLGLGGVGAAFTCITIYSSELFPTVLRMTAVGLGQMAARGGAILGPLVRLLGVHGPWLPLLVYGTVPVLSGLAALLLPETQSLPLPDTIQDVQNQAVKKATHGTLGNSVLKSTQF
Text: (§1) For uptake experiments, oocytes were washed four times with ND96 medium (pH 7.4) without pyruvate and gentamycin.

URAT1 [2] = target: T1, URAT1; test: [14C]-nicotinate uptake by URAT1-expressing Xenopus oocytes; format: cell-based
Text: as §1
Data are mean ± S.E. with n = 12–15.

OAT10 = OAT10 (Homo sapiens, UniProt Q9Y226); test: [14C]-nicotinate uptake by OAT10-expressing Xenopus oocytes; format: cell-based; conditions: for Inhibition of OAT10 [14C]-nicotinate uptake: drug 100 μmol/L
Sequence of OAT10 (Q9Y226 whole entry): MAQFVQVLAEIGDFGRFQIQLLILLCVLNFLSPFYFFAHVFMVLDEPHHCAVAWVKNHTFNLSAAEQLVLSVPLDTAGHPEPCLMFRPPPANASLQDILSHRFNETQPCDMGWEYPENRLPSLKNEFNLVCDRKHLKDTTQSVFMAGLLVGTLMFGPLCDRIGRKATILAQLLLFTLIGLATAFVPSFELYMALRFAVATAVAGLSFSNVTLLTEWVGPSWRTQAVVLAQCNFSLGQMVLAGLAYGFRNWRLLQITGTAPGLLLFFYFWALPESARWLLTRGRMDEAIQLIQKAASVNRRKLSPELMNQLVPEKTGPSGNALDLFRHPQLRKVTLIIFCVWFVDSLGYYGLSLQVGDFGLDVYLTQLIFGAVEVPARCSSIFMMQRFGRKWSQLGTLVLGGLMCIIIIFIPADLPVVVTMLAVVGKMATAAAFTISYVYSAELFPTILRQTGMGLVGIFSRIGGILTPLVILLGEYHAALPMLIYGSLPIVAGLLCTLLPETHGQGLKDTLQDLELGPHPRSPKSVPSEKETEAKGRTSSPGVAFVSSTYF
Protocol: as §1
Chloride ion‐dependence was also assessed; in 0 Cl^− bath, NaCl was replaced by Na‐gluconate (Na‐Gluc), KCl by K‐gluconate (K‐Gluc), MgCl2 by Mg‐gluconate, and CaCl2 by Ca‐gluconate. […] Data are mean ± S.E. with n = 12–15.

OAT1 = target: T2, OAT1 (Homo sapiens, UniProt Q4U2R8); test: [14C]-urate uptake by OAT1-expressing Xenopus oocytes; format: cell-based; conditions: drug 100 μmol/L
T2 sequence (Q4U2R8 1-563): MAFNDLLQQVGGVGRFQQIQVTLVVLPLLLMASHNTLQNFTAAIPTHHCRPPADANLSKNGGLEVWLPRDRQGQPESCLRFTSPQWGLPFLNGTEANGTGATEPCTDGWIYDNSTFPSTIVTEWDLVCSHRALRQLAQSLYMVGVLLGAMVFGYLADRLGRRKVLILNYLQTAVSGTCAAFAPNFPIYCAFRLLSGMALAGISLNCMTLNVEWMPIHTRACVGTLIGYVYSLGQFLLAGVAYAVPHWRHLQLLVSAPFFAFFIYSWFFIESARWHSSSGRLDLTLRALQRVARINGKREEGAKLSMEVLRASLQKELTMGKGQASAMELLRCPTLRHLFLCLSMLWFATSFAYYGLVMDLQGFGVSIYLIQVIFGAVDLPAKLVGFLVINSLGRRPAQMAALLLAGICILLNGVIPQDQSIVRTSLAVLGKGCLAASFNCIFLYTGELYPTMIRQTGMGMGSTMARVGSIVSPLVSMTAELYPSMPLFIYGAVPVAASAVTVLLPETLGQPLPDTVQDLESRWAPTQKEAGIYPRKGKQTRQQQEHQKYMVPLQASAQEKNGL
Text: as §1

[3] = set-up: method as in Sundy and Kitt 2010; conditions: at least partially due to uricosuric effects; ref Sundy and Kitt 2010; cited from earlier work
[4] = system: inflammation induced by monosodium urate (MSU) crystals; set-up: method as in Serafini and Emerling 2010; conditions: ref Serafini and Emerling 2010; cited from earlier work
[5] = PZA-preloaded oocytes, read-out: IC50, OAT10-mediated [14C]-nicotinate/PZA exchange

Compound | URAT1 urate transport inhibition after washing and removal of inhibitor (URAT1 [1]) | Vmax of URAT1-mediated urate uptake (URAT1 [1]) | mode of inhibition of URAT1-mediated urate transport (URAT1 [1]) | Ki (URAT1 [1]; Eadie-Hofstee analysis, read-out: inhibition constant (Ki) for URAT1-mediated urate uptake) [µM] | IC50 (URAT1 [1]; IC50, URAT1-mediated [14C]-urate/PZA or [14C]-urate/nicotinate exchange, oocytes preloaded with nicotinate (Fig. 1E), 1 h) | IC50 (URAT1 [1]; uptake in the absence of PZA or nicotinate preloading, data not shown, read-out: IC50, basal URAT1-mediated [14C]-urate uptake) [µM] | IC50 (URAT1 [2]; PZA-preloaded oocytes, 40 μmol/L nicotinate, read-out: IC50, URAT1-mediated [14C]-nicotinate uptake ([14C]-nicotinate/PZA exchange)) | IC50 (OAT10; [5]) [µM] | Inhibition of OAT10 [14C]-nicotinate uptake (OAT10) | IC50 (OAT10; without preloading, data not shown, read-out: IC50, OAT10-mediated [14C]-nicotinate uptake) [µM] | Inhibition of OAT1-mediated urate uptake (OAT1) | Effect on SUA in healthy human subjects [3] | Effect on inflammation induced by MSU crystals in vivo [4] | Inhibition of URAT1-mediated [14C]-urate/PZA or /nicotinate exchange (URAT1 [1]) | Reversibility of URAT1 inhibition (URAT1 [1]) | Sensitivity of URAT1-mediated [14C]-nicotinate uptake to drug (URAT1 [2]; data not shown)
COc1ccc(C=CC(=O)Nc2ccccc2C(=O)O)cc1OC [tranilast, N‐(3,4‐dimethoxycinnamoyl) anthranilic acid] | almost no inhibition | 120.1 pmoles/oocyte/h and 63.5 pmoles/oocyte/h | noncompetitive inhibition (mixed) | 21.3 ± 2.2 | 21 µM and ~21 µM | ~20 | ~190 µM and 190 µM and > 185 µM | ~43.1 | inhibited | ~42 | effectively inhibited | potent reduction in SUA | suppresses inflammation | – | – | –
CCc1oc2ccccc2c1C(=O)c1cc(Br)c(O)c(Br)c1 [benzbromarone] | substantially inhibited | – | – | – | – | – | – | ~22.8 | inhibited | – | effectively inhibited | – | – | efficiently inhibited | not reversible | –
CCCN(CCC)S(=O)(=O)c1ccc(C(=O)O)cc1 [probenecid] | – | – | – | – | – | – | – | – | – | – | – | – | – | efficiently inhibited | not reversible | very sensitive
